Reference: ChEMBL document CHEMBL1159301, “Isolation and absolute configuration of ent-Halimane diterpenoids from Hymenaea courbaril from the Suriname rain forest” (J Nat Prod, 2002)
Active and inactive are the calls of the source. The rule behind the calls is not given here.

How the values were obtained:
[1] = test system: Saccharomyces cerevisiae; test: DNA damaging activity against yeast 1138 mutant assessed as drug level required to produce 12 mm zone of inhibition; format: functional
[2] = test system: A2780; test: Cytotoxicity against human A2780 cells after 48 hrs by alamar blue assay; format: functional, cell-based

C=C[C@](C)(O)CC[C@]1(C)C2=CCC[C@](C)(C(=O)O)[C@H]2CC[C@H]1C
IC12 [1]: 925 µg/mL | IC50 ([2]; A2780, 48 h): > 40 µg/mL

C=C[C@](C)(O)CC[C@]1(C)C2=CCC[C@](C)(C(=O)N[C@H](C(=O)OC)c3ccccc3)[C@H]2CC[C@H]1C
Activity [1]: inactive | Activity [2]: inactive

C=C[C@](C)(O)CC[C@]1(C)C2=CCC[C@](C)(C(=O)N[C@@H](C(=O)OC)c3ccccc3)[C@H]2CC[C@H]1C
Activity [1]: inactive | Activity [2]: inactive

C=C[C@](C)(O)CC[C@]1(C)C2=CC(=O)C[C@](C)(C(=O)O)[C@H]2CC[C@H]1C
Activity [1]: inactive | Activity [2]: inactive
